Data from ChEMBL document CHEMBL5649166, “RIP3 induces apoptosis independent of pronecrotic kinase activity” (Mol Cell, 2014).

How the values were obtained:
[1] = target: Epidermal growth factor receptor (Homo sapiens) (UniProt P00533); assay: Inhibition of human EGFR using poly[Glu:Tyr] (4:1) as substrate at 1 uM in presence of 32P-ATP by Hotspot assay relative to control; values are per cent of control
[2] = target: T1, Serine/threonine-protein kinase DCLK2 (Homo sapiens) (UniProt Q8N568); assay: Inhibition of human DCAMKL2 using KKLNRTLSFAEPG as substrate at 1 uM in presence of 32P-ATP by Hotspot assay relative to control; values are per cent of control
T1 sequence (whole entry): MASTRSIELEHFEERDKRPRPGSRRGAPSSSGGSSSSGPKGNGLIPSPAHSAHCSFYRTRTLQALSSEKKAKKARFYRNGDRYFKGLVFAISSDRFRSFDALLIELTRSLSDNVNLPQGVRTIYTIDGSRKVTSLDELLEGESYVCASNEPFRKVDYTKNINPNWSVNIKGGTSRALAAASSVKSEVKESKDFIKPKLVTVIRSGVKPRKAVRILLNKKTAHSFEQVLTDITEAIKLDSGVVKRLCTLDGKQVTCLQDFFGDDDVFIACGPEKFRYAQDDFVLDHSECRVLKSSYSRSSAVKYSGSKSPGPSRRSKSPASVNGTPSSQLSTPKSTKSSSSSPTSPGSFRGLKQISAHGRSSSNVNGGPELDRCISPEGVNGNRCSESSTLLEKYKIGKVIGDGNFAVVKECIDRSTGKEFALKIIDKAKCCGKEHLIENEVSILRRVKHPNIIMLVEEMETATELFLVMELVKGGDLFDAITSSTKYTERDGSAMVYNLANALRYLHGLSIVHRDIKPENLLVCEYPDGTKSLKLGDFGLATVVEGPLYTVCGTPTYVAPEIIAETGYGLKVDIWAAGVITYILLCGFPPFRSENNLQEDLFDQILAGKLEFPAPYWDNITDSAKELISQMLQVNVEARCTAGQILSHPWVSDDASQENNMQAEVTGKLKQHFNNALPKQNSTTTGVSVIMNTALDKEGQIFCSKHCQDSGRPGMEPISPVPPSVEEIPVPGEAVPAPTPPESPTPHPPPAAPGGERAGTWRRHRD

[3] = target: Fibroblast growth factor receptor 3 (Homo sapiens) (UniProt P22607); assay: Inhibition of human FGFR3 using poly[Glu:Tyr] (4:1) as substrate at 1 uM in presence of 32P-ATP by Hotspot assay relative to control; values are per cent of control
[4] = target: T2, Serine/threonine-protein kinase D2 (Homo sapiens) (UniProt Q9BZL6); assay: Residual activity of human PKD2/PRKD2 using KKLNRTLSVA as substrate at 1 uM in presence of 32P-ATP by Hotspot assay relative to control
T2 sequence (whole entry): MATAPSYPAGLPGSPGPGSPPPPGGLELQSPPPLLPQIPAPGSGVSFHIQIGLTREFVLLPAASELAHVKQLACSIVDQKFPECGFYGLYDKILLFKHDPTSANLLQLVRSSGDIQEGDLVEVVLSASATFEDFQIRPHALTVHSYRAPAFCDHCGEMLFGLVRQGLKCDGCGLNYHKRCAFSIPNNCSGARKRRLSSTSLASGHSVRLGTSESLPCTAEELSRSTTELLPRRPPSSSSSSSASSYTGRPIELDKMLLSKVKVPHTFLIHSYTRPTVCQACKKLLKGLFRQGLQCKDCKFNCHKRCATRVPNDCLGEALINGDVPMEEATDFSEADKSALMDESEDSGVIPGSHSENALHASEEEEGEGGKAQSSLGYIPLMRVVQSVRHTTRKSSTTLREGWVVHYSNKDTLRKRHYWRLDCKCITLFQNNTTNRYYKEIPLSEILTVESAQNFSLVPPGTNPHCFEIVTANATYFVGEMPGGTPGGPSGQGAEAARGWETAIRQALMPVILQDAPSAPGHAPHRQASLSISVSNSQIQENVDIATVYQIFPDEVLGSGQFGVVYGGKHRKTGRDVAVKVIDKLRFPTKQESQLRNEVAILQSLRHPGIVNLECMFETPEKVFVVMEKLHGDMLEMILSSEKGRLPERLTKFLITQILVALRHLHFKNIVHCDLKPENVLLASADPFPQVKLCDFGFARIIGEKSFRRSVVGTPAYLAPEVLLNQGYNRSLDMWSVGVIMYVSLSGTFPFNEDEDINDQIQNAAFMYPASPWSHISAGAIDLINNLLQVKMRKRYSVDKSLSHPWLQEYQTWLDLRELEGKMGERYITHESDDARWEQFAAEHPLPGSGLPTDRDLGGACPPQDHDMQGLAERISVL

[5] = target: Serine/threonine-protein kinase Nek7 (Homo sapiens) (UniProt Q8TDX7); assay: Inhibition of human NEK7 using casein as substrate at 1 uM in presence of 32P-ATP by Hotspot assay relative to control; values are per cent of control
[6] = target: Tyrosine-protein kinase Lyn (Homo sapiens) (UniProt P07948); assay: Inhibition of human LYN B using poly[Glu:Tyr] (4:1) as substrate at 1 uM in presence of 32P-ATP by Hotspot assay relative to control; values are per cent of control
[7] = target: Protein-tyrosine kinase 2-beta (Homo sapiens) (UniProt Q14289); assay: Inhibition of human PYK2 using poly[Glu:Tyr] (4:1) as substrate at 1 uM in presence of 32P-ATP by Hotspot assay relative to control; values are per cent of control
[8] = target: Casein kinase I isoform gamma-2 (Homo sapiens) (UniProt P78368); assay: Inhibition of human CK1g2 using KRRRAL[pS]VASLPGL as substrate at 1 uM in presence of 32P-ATP by Hotspot assay relative to control; values are per cent of control
Casein kinase I isoform gamma-2 (Homo sapiens), sequence (P78368 whole entry, looked up, canonical isoform): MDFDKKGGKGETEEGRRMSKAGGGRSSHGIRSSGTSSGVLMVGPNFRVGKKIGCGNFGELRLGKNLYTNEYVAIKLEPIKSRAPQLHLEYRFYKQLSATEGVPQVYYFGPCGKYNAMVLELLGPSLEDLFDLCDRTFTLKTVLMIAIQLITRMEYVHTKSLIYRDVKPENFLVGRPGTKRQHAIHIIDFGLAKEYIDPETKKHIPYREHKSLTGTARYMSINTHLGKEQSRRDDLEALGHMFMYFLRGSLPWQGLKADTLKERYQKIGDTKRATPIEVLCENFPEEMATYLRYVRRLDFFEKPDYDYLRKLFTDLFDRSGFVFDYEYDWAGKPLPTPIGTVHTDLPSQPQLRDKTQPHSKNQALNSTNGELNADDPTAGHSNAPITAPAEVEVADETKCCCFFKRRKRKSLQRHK

Protein-tyrosine kinase 2-beta (Homo sapiens), sequence (Q14289 whole entry, looked up, canonical isoform): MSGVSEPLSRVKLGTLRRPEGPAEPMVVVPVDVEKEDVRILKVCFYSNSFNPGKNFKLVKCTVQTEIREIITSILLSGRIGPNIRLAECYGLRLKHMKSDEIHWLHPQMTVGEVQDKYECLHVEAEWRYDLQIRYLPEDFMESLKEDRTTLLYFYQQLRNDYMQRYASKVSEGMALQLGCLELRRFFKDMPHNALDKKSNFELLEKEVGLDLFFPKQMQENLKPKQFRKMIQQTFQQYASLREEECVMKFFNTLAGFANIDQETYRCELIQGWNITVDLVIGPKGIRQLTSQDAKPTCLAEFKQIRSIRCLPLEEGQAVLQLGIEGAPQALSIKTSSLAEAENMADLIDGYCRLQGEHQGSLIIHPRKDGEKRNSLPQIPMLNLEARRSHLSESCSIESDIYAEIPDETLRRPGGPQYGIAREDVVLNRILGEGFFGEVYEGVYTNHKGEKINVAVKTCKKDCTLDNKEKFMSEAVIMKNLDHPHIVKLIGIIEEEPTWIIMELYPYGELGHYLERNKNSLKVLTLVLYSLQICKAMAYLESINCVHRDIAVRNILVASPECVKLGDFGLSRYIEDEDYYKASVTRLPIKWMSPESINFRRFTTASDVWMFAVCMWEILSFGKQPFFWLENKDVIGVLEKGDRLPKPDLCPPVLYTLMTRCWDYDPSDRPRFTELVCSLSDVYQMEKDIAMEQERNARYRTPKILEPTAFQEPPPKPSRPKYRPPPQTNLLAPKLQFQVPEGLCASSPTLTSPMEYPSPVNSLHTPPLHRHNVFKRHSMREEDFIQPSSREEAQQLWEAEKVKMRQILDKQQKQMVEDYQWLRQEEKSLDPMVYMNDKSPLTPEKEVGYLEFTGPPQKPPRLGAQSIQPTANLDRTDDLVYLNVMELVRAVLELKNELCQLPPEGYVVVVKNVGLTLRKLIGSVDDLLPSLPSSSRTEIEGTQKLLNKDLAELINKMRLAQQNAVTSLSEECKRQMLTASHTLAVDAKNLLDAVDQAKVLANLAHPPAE
Serine/threonine-protein kinase Nek7 (Homo sapiens), sequence (Q8TDX7 whole entry, looked up): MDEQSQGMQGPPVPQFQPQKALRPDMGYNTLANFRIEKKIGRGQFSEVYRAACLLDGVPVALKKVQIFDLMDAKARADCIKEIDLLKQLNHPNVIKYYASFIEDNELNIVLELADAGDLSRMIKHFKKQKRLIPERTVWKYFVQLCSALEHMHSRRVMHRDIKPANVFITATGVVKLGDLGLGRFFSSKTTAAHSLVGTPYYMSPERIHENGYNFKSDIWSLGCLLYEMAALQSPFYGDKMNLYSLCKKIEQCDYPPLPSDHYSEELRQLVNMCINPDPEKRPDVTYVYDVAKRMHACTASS
Epidermal growth factor receptor (Homo sapiens), sequence (P00533 whole entry): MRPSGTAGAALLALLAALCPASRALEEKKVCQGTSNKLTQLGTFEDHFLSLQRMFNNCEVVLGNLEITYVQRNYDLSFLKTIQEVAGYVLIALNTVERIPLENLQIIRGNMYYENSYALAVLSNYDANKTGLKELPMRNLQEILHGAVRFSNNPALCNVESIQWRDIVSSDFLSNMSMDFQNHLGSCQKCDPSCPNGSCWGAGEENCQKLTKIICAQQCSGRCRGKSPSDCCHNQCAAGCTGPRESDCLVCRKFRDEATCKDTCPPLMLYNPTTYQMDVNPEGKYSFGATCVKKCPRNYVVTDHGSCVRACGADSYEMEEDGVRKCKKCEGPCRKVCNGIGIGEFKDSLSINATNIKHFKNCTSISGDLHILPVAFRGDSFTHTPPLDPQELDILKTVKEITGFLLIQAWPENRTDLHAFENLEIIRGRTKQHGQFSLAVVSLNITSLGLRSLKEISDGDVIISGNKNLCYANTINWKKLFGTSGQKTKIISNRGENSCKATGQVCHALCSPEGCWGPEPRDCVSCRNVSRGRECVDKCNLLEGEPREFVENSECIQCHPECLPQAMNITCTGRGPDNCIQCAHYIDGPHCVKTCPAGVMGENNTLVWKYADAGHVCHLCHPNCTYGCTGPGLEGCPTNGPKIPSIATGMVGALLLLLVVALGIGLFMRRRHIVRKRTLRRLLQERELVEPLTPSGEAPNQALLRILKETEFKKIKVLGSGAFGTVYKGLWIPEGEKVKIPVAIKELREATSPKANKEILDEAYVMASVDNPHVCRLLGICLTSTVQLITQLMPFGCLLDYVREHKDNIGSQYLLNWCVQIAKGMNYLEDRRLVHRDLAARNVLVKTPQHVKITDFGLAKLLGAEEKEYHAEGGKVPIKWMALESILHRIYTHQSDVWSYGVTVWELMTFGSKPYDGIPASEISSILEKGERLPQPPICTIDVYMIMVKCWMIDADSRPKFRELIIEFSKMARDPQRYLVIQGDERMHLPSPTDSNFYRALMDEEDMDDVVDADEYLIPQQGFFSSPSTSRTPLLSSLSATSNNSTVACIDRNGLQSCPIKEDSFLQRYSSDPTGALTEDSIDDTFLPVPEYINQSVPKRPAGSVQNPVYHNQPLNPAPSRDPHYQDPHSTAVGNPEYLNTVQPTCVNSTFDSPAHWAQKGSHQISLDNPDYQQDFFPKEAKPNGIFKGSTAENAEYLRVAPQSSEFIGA
Tyrosine-protein kinase Lyn (Homo sapiens), sequence (P07948 2-512 limits assumed): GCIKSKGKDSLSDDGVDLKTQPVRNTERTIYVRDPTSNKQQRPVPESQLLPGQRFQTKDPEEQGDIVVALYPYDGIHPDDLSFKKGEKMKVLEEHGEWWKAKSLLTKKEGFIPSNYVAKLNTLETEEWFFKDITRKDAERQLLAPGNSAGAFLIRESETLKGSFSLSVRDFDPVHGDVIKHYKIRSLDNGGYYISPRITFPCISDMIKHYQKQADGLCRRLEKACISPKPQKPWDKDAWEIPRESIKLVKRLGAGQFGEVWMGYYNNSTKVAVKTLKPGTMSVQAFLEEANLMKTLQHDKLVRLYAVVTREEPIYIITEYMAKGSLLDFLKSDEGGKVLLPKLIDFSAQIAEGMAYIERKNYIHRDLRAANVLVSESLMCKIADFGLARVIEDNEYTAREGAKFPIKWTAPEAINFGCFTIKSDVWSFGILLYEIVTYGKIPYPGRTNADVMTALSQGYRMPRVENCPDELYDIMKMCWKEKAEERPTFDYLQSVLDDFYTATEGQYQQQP
Fibroblast growth factor receptor 3 (Homo sapiens), sequence (P22607 23-806 limits assumed): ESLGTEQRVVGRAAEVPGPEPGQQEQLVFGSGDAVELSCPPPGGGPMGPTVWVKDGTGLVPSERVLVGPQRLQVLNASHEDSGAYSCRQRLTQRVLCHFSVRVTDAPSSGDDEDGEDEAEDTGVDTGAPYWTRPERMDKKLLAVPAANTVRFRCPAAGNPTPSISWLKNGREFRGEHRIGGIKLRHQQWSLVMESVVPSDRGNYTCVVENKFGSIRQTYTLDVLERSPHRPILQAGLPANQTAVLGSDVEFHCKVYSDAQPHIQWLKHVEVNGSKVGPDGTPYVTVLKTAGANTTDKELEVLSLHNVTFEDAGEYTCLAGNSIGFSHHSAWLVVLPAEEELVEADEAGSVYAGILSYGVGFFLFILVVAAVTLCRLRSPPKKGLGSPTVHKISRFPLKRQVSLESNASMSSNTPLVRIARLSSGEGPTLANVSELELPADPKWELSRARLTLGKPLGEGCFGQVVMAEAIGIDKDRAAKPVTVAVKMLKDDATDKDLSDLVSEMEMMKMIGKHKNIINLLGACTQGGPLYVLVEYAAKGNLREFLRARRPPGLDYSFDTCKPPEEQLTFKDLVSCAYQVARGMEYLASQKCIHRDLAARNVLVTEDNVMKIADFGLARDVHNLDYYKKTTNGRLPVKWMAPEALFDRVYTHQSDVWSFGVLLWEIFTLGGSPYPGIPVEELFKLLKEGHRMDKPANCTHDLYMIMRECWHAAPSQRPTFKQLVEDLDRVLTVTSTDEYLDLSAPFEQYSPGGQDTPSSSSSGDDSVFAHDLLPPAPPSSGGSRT

| Compound | residual activity [1] [%] | residual activity [2] [%] | residual activity [3] [%] | residual activity [4] [%] | residual activity [5] [%] | residual activity [6] [%] | residual activity [7] [%] | residual activity [8] [%] |
| --- | --- | --- | --- | --- | --- | --- | --- | --- |
| CNC(=O)c1ccc2c(c1)ncn2-c1ccc(CC(=O)OC(C)(C)C)cc1 | 97.7 | 98.6 | 65.3 | 99 | 91.5 | 89.2 | 96.4 | 91.8 |
| Cc1cc(-c2cnc(N)c3c(-c4ccc5scnc5c4)csc23)n(C)n1 | 93.9 | 95.2 | 65 | 39.4 | 94.9 | 14 | 105 | 79.1 |
| CC(C)S(=O)(=O)c1ccc2nccc(Nc3ccc4scnc4c3)c2c1 | 90.7 | 99.4 | 94.3 | 101 | 95.6 | 74.6 | 95.5 | 100 |
